The results in this text go back to US11332455B2, “α,β-unsaturated amide compound” (KYOWA KIRIN CO., LTD., priority 2015, dated 2022).

Holding throughout (experiment): Cell growth inhibitory effect, cell counting kit 8, 6 days
Common to all, as to format: cell-based
(In general: Tetrazolium assays rely on reduction of a dye to a coloured formazan, in cell work by metabolically active cells.)

The test system of test [1] is NCI-H226 cells, a human mesothelioma cell line. The note with it: 144 h, 6 days incubation. The gist of the method: (§1)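 Cells grown in RPMI1640 with 10% FBS, plated at 500 cells/well (NCI-H226, NCI-H322) and incubated one day before serially diluted compound was added (0.1% DMSO final). After 6 days at 37 °C, 5% CO2, CCK-8 colour developed 2–3 h and A450 read; GI50 derived from growth inhibition rate.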

Test [2] has as its system HuH28, a human liver cancer cell line. To be noted: 144 h, HuH28 cells, 6 days incubation. An outline of the steps:
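HuH28 human liver cancer cells (JCRB0426) were maintained below 80% density in RPMI1640 with 10% FBS and grown in 96-well flat-bottom plates. Test compound was serially diluted to 5 times final concentration and added with DMSO at 0.1%, then incubated for 6 days at 37° C in 5% CO2. Viable cells were counted with cell counting kit 8 at dosing and on day 6, using a 2 or 3 hour color reaction and absorbance at 450 nm. GI50 was derived from growth inhibition rates.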

For test [3], the system named is NCI-H322 cells, a human lung cancer cell line. The note with it: 144 h, 6 days incubation. The gist of the method: as §1
The mark [4] stands for this setting: group 100 nmol/L to 1 μmol/L (upper bound given in μmol/L).

Where only a bound is given, the exact number is not on record here.

For the compound `C=CC(=O)NCc1ccc(Oc2cccc(C(F)(F)F)c2)c2ncccc12` [Compound 137, N-([8-{3-(Trifluoromethyl)phenoxy}quinolin-5-yl]methyl)acrylamide], the GI50 (in general, the concentration giving 50% growth inhibition) in test [1] (group less than 100 nmol/L) was under 100 nM; in test [2] it was under 3000 nM; in test [3], under 1000 nM.
The matching figures for `C=CC(=O)NCc1ccc(Oc2ccc(C(F)(F)F)cc2)c2ncccc12` [Compound 138, N-([8-{4-(Trifluoromethyl)phenoxy}quinolin-5-yl]methyl)acrylamide]: under 100 nM, under 3000 nM and under 1000 nM.
The corresponding values for `C=CC(=O)NCc1ccc(Oc2ccc(C(F)(F)F)cc2)c2nc(Cl)ccc12` [Compound 139, N-([2-Chloro-8-{4-(trifluoromethyl)phenoxy}quinolin-5-yl]methyl)acrylamide] are under 100 nM, under 3000 nM and under 1000 nM.
The matching figures for `C=CC(=O)NCc1ccc(Oc2ccc(C(F)(F)F)nc2)c2ncccc12` [Compound 143, N-{(8-[{6-(Trifluoromethyl)pyridin-3-yl}oxy]quinolin-5-yl)methyl}acrylamide]: under 100 nM, under 3000 nM and under 1000 nM.
On to `C=CC(=O)NCc1cc(Oc2ccc(C(F)(F)F)nc2)nc2ccccc12` [Compound 149, N-{(2-[{6-(Trifluoromethyl)pyridin-3-yl}oxy]quinolin-4-yl)methyl}acrylamide], for which the GI50 is under 100 nM in test [1] (group less than 100 nmol/L), under 3000 nM in test [2] and under 1000 nM in test [3].
Turning to `C=CC(=O)NCc1cc(Oc2ccnc(Cl)c2)nc2ccccc12` [Compound 150, N-([2-{(2-Chloropyridin-4-yl)oxy}quinolin-4-yl]methyl)acrylamide], the concentration for 50% growth inhibition (GI50) in test [1] (group less than 100 nmol/L) was under 100 nM; in test [2] it was under 3000 nM; in test [3], under 1000 nM.
`C=CC(=O)NCc1cc(Oc2ccnc(C(F)(F)F)c2)nc2ccccc12` [Compound 151, N-{(2-[{2-(Trifluoromethyl)pyridin-4-yl}oxy]quinolin-4-yl)methyl}acrylamide]: the figures for the GI50 in test [1] (group less than 100 nmol/L), in test [2] and in test [3] were under 100 nM, under 3000 nM and under 1000 nM, respectively.
Regarding `C=CC(=O)NC1COc2c(cccc2Oc2cnc(C(F)(F)F)nc2)C1` (stereo not drawn) [Compound 155, N-(8-[{2-(Trifluoromethyl)pyrimidin-5-yl}oxy]chroman-3-yl)acrylamide], the GI50 was under 100 nM in test [1] (group less than 100 nmol/L), under 3000 nM in test [2] and under 1000 nM in test [3].
With `C=CC(=O)NC1CCOc2c1ccc(Oc1ccc(F)c(F)c1)c2OC` (stereo not drawn) [Compound 164, N-{7-(3,4-Difluorophenoxy)-8-methoxychroman-4-yl}acrylamide], the results for the GI50 in test [1] (setting [4]), in test [2] and in test [3] were 100 to 1000 nM, under 3000 nM and under 1000 nM, respectively.
`C=CC(=O)NC1CCOc2c1ccc(Oc1ccc(C(F)(F)F)nc1)c2Cl` (stereo not drawn) [Compound 168, N-(8-Chloro-7-[{6-(trifluoromethyl)pyridin-3-yl}oxy]chroman-4-yl)acrylamide]: the GI50 was under 100 nM in test [1] (group less than 100 nmol/L), under 3000 nM in test [2] and under 1000 nM in test [3].
For the compound `C=CC(=O)NC1CCOc2c1ccc(Oc1ccc(C(F)(F)F)nc1)c2Br` (stereo not drawn) [Compound 169, N-(8-Bromo-7-[{6-(trifluoromethyl)pyridin-3-yl}oxy]chroman-4-yl)acrylamide], the figures for the GI50 in test [1] (group less than 100 nmol/L), in test [2] and in test [3] were under 100 nM, under 3000 nM and under 1000 nM, respectively.
For the compound `C=CC(=O)NCc1ccc(Oc2ccc(Cl)cc2)c2c1CCCO2` [Compound 176, N-[{8-(4-Chlorophenoxy)chroman-5-yl}methyl]acrylamide], the GI50 was under 100 nM in test [1] (group less than 100 nmol/L), under 3000 nM in test [2] and under 1000 nM in test [3].
`Nc1cncc(OCC2CCC(F)(F)CC2)c1` [Compound 192, 5-[(4,4-Difluorocyclohexyl)methoxy]pyridin-3-amine]: the results for the GI50 in test [1] (setting [4]), in test [2] and in test [3] were 100 to 1000 nM, under 3000 nM and under 1000 nM, respectively.
Consider `C=CC(=O)NCc1ccc(Oc2ccc(C(F)(F)F)cc2)c2ncc(C)cc12` [Compound 199, N-([3-Methyl-8-{4-(trifluoromethyl)phenoxy}quinolin-5-yl]methyl)acrylamide], for which the figures for the GI50 in test [1] (group less than 100 nmol/L), in test [2] and in test [3] were under 100 nM, under 3000 nM and under 1000 nM, respectively.
The matching figures for `C=CC(=O)NCc1ccc(Oc2ccc(C(F)(F)F)nc2)c2ncc(C)cc12` [Compound 200, N-{(3-Methyl-8-[{6-(trifluoromethyl)pyridin-3-yl}oxy]quinolin-5-yl)methyl}acrylamide]: under 100 nM, under 3000 nM and under 1000 nM.
The matching figures for `C=CC(=O)NCc1ccc(Oc2ccc(C(F)(F)F)cc2)c2nccc(C)c12` [Compound 201, N-([4-Methyl-8-{4-(trifluoromethyl)phenoxy}quinolin-5-yl]methyl)acrylamide]: under 100 nM, under 3000 nM and under 1000 nM.
Turning to `C=CC(=O)NCc1ccc(Sc2ccc(C(F)(F)F)cc2)c2ncccc12` [Compound 202, N-{(8-[{4-(Trifluoromethyl)phenyl}thio]quinolin-5-yl)methyl}acrylamide], the GI50 in test [1] (group less than 100 nmol/L) is under 100 nM; in test [2], under 3000 nM; in test [3], under 1000 nM.
The matching figures for `C=CC(=O)NCc1ccc(Nc2ccc(C(F)(F)F)cc2)c2ncccc12` [Compound 203, N-{(8-[{4-(Trifluoromethyl)phenyl}amino]quinolin-5-yl)methyl}acrylamide]: under 100 nM, under 3000 nM and under 1000 nM.
For the compound `C=CC(=O)NCc1ccc(C(O)c2ccc(C(F)(F)F)cc2)c2ncccc12` (stereo not drawn) [Compound 206, N-{(8-[Hydroxy{4-(trifluoromethyl)phenyl}methyl]quinolin-5-yl)methyl}acrylamide], the GI50 in test [1] (setting [4]) was 100 to 1000 nM; in test [2], under 3000 nM; in test [3], under 1000 nM.
The corresponding values for `C=CC(=O)NCc1ccc(C(=O)c2ccc(C(F)(F)F)cc2)c2ncccc12` [Compound 208, N-([8-{4-(Trifluoromethyl)benzoyl}quinolin-5-yl]methyl)acrylamide] are 100 to 1000 nM, under 3000 nM and under 1000 nM.
Take `C=CC(=O)NCc1ccc(Cc2ccc(C(F)(F)F)cc2)c2ncccc12` [Compound 211, N-([8-{4-(Trifluoromethyl)benzyl}quinolin-5-yl]methyl)acrylamide]: the figures for the GI50 in test [1] (group less than 100 nmol/L), in test [2] and in test [3] were under 100 nM, under 3000 nM and under 1000 nM, respectively.
The matching figures for `C=CC(=O)NCc1ccc(Oc2ccc(C(F)(F)F)cc2)c2nc(C)ccc12` [Compound 212, N-([2-Methyl-8-{4-(trifluoromethyl)phenoxy}quinolin-5-yl]methyl)acrylamide]: under 100 nM, under 3000 nM and under 1000 nM.
For the compound `C=CC(=O)NCc1cnc(Oc2ccc(C(F)(F)F)cc2)c2ccccc12` [Compound 222, N-([1-{4-(Trifluoromethyl)phenoxy}isoquinolin-4-yl]methyl)acrylamide], the GI50 in test [1] (group less than 100 nmol/L) was under 100 nM; in test [2] it was under 3000 nM; in test [3], under 1000 nM.
